What was measured:
[1] = molecular target: T1, IL-17A/F (Homo sapiens, UniProt Q16552+Q96PD4); test: IL-17A/F HEK-Blue Cell Assay; type: cell-based; details: HEK-Blue IL-17 reporter cells, IL-17A/F stimulation, 20 hours, SEAP readout; for IC50: read-out: IL17AF HEK Blue pIC50 (converted)
T1 sequence (Q16552 24-155): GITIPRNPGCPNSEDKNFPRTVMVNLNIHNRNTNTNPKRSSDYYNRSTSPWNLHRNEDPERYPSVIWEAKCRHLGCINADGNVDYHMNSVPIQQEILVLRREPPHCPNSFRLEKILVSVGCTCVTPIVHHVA
T1 sequence (Q96PD4 31-163): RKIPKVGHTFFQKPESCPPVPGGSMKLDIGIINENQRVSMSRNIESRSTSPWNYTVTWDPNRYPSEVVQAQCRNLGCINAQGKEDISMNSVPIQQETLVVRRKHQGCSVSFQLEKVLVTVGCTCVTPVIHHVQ
Protocol: The HEK-Blue IL-17 reporter cell line (Fisher #NC1408637) was used for cell-based IL-17A/F inhibition assays. Cells were grown and prepared for assays according to the manufacturer's instructions. This cell line consists of HEK 293 cells that were designed to expressed IL-17RA, IL-17R^C, and the ActI adapter molecule, the combination of which, when stimulated by IL-17A/A activates a NFκB promoter and drives expression of a recombinant Secreted Alkaline Phosphatase (SEAP) geneprotein. Media from the cells is then added to a development reagent (Quanti-Blue Substrate, Fisher #NC9711613), and read at A630.
Compounds were titrated in DMSO and added to the cells immediately before adding IL-17A/A (Custom from R&D systems, untagged IL-17A/F+BSA as a carrier protein). The cells, compound, and IL-17A/A were then incubated for 20 hours before media was removed for SEAP analysis. The resulting inhibition curve was then analyzed using a Dotmatics screening protocol, and IC50 values were determined using a 4-parameter nonlinear fit. DMSO was added to a universal final concentration of 0.1% to optimize background.

[2] = molecular target: T2, IL-17A/A (Homo sapiens, UniProt Q16552); test: IL-17A/A HEK-Blue Cell Assay; type: cell-based; details: HEK-Blue IL-17 reporter cells, IL-17A/A stimulation, 20 hours, SEAP readout; read-out: IL17 AA HEK-5 pIC50 (converted)
T2 sequence (Q16552 24-155): T1 sequence (Q16552 24-155)
Method in brief: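 Cells co-expressing IL-17RA, IL-17RC and Act1 received titrated compound, top final 10 uM in 0.1% DMSO, immediately before IL-17A/A stimulation.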

| Structure (SMILES) | IC50 [1] [nM] | IC50 [2] [nM] | IL17AF HEK Blue pIC50 [1] |
| --- | --- | --- | --- |
| CCn1nccc1C(=O)N[C@H](C(=O)Nc1ccc(C(C(NC(=O)[C@H](C)OC)C(=O)N2CCN(C)[C@H](C)C2)C(F)(F)F)cc1F)C(C1CC1)C1CC1 (single isomer, unassigned) [Compound 353] | 10 to 100 | < 10 | – |
| CCn1nccc1C(=O)N[C@H](C(=O)Nc1ccc(C(C(NC(=O)[C@H](C)OC)C(=O)N2CCN(C)[C@H](C)C2)C(F)(F)F)cc1F)C(C1CC1)C1CC1 (single isomer, unassigned) [Compound 355] | 100 to 10000 | 100 to 10000 | – |
| CCC(=O)NC(C(=O)N1CCN(C)CC1)C(c1ccc(NC(=O)[C@@H](NC(=O)c2ccnn2CC)C(C2CC2)C2CC2)c(F)c1)C(F)(F)F (single isomer, unassigned) [Compound 356] | – | 10 to 100 | C (7>C≥5) |
| CCn1nccc1C(=O)N[C@H](C(=O)Nc1ccc(C(C(NC(=O)[C@H](C)OC)C(=O)N2CCN(C)[C@H](C)C2)C(F)(F)F)cc1F)C(C1CC1)C1CC1 (single isomer, unassigned) [Compound 357] | 100 to 10000 | 100 to 10000 | – |
| CCC(=O)N[C@@H](C(=O)N1CCN(C)CC1)[C@@H](C)c1ccc(NC(=O)[C@@H](NC(=O)c2ccnn2CC)C(C2CC2)C2CC2)c(F)c1 [Compound 200] | 10 to 100 | 10 to 100 | – |
| CCC(=O)N[C@@H](C(=O)N1CCN(C)CC1)[C@@H](C)c1ccc(NC(=O)[C@@H](NC(=O)c2ccnn2CCF)C(C2CC2)C2CC2)c(F)c1 [Compound 216] | 10 to 100 | 10 to 100 | – |
| CCn1nccc1C(=O)N[C@H](C(=O)Nc1ccc([C@H](C)[C@@H](NC(=O)[C@H](C)OC)C(=O)N2CCN(C)[C@H](C)C2)cc1F)C(C1CC1)C1CC1 [Compound 221] | 10 to 100 | < 10 | – |
| CCn1nccc1C(=O)N[C@H](C(=O)Nc1ccc([C@H](C)[C@@H](NC(=O)[C@H](C)OC)C(=O)N2CCN(C)CC2)cc1F)C(C1CC1)C1CC1 [Compound 222] | 10 to 100 | < 10 | – |
| CCC(=O)N[C@@H](C(=O)N1CCN(C)[C@H](C)C1)[C@@H](C)c1ccc(NC(=O)[C@@H](NC(=O)c2nonc2C)C(C2CC2)C2CC2)c(F)c1 [Compound 246] | 100 to 10000 | < 10 | – |
| CCC(=O)N[C@@H](C(=O)N1CCC[C@H](N)C1)[C@@H](C)c1ccc(NC(=O)[C@@H](NC(=O)c2ccnn2CC)C(C2CC2)C2CC2)c(F)c1 [Compound 267] | 100 to 10000 | 10 to 100 | – |
| CCOC(=O)N[C@@H](C)C(=O)N[C@@H](C(=O)N1CCN(C)CC1)[C@@H](C)c1ccc(NC(=O)[C@@H](NC(=O)C2(F)CC2)C(C2CC2)C2CC2)c(F)c1 [Compound 269] | 100 to 10000 | < 10 | – |
| C[C@@H](c1ccc(NC(=O)[C@@H](NC(=O)C2(F)CC2)C(C2CC2)C2CC2)c(F)c1)[C@@H](NC(=O)N(C)C1CC1)C(=O)N1CCN(C)CC1 [Compound 270] | 100 to 10000 | < 10 | – |
| C[C@@H]1CN(C(=O)[C@H](NC(=O)N(C)C2CC2)[C@@H](C)c2ccc(NC(=O)[C@@H](NC(=O)C3(F)CC3)C(C3CC3)C3CC3)c(F)c2)CCN1C [Compound 271] | 100 to 10000 | < 10 | – |
| CO[C@@H](C)C(=O)N[C@@H](C(=O)N1CCN(C)[C@H](C)C1)[C@@H](C)c1ccc(NC(=O)[C@@H](NC(=O)C2(F)CC2)C(C2CC2)C2CC2)c(F)c1 [Compound 273] | 100 to 10000 | < 10 | – |
| CCOC(=O)N1CC[C@H]1C(=O)N[C@@H](C(=O)N1CCN(C)[C@H](C)C1)[C@@H](C)c1ccc(NC(=O)[C@@H](NC(=O)C2(F)CC2)C(C2CC2)C2CC2)c(F)c1 [Compound 275] | 100 to 10000 | < 10 | – |
| COC(=O)N1CC[C@H]1C(=O)N[C@@H](C(=O)N1CCN(C)CC1)[C@@H](C)c1ccc(NC(=O)[C@@H](NC(=O)C2(F)CC2)C(C2CC2)C2CC2)c(F)c1 [Compound 277] | 100 to 10000 | 10 to 100 | – |
| COC(=O)N1CC[C@H]1C(=O)N[C@@H](C(=O)N1CCN(C)[C@H](C)C1)[C@@H](C)c1ccc(NC(=O)[C@@H](NC(=O)C2(F)CC2)C(C2CC2)C2CC2)c(F)c1 [Compound 278] | 100 to 10000 | < 10 | – |
| CCOC(=O)N1CCC[C@H]1C(=O)N[C@@H](C(=O)N1CCN(C)[C@H](C)C1)[C@@H](C)c1ccc(NC(=O)[C@@H](NC(=O)C2(F)CC2)C(C2CC2)C2CC2)c(F)c1 [Compound 279] | 100 to 10000 | < 10 | – |

| Structure (SMILES) | IC50 [1] [nM] | IC50 [2] [nM] | IL17AF HEK Blue pIC50 [1] |
| --- | --- | --- | --- |
| COC(=O)N1CCC[C@H]1C(=O)N[C@@H](C(=O)N1CCN(C)CC1)[C@@H](C)c1ccc(NC(=O)[C@@H](NC(=O)C2(F)CC2)C(C2CC2)C2CC2)c(F)c1 [Compound 280] | 100 to 10000 | 10 to 100 | – |
| COC(=O)N1CCC[C@H]1C(=O)N[C@@H](C(=O)N1CCN(C)[C@H](C)C1)[C@@H](C)c1ccc(NC(=O)[C@@H](NC(=O)C2(F)CC2)C(C2CC2)C2CC2)c(F)c1 [Compound 281] | 100 to 10000 | < 10 | – |
| CCOC(=O)N[C@@H](C)C(=O)N[C@@H](C(=O)N1CCN(C)[C@H](C)C1)[C@@H](C)c1ccc(NC(=O)[C@@H](NC(=O)C2(F)CC2)C(C2CC2)C2CC2)c(F)c1 [Compound 282] | 10 to 100 | < 10 | – |
| CCn1nccc1C(=O)N[C@H](C(=O)Nc1ccc([C@H](C)[C@@H](NC(=O)COC)C(=O)N2CCN(C)C[C@@H]2C)cc1F)C(C1CC1)C1CC1 [Compound 283] | 10 to 100 | < 10 | – |
| CCn1nccc1C(=O)N[C@H](C(=O)Nc1ccc([C@H](C)[C@@H](NC(=O)[C@H](C)OC)C(=O)N2CCN(C)C[C@@H]2C)cc1F)C(C1CC1)C1CC1 [Compound 284] | 10 to 100 | < 10 | – |
| CO[C@@H](C)C(=O)N[C@@H](C(=O)N1CCN(C)C[C@@H]1C)[C@@H](C)c1ccc(NC(=O)[C@@H](NC(=O)C2(F)CC2)C(C2CC2)C2CC2)c(F)c1 [Compound 285] | 100 to 10000 | 10 to 100 | – |
| CCn1nccc1C(=O)N[C@H](C(=O)Nc1ccc([C@H](C)[C@@H](NC(=O)COC)C(=O)N2C[C@@H](C)N(C)C[C@H]2C)cc1F)C(C1CC1)C1CC1 [Compound 286] | 10 to 100 | < 10 | – |
| CCn1nccc1C(=O)N[C@H](C(=O)Nc1ccc([C@H](C)[C@@H](NC(=O)[C@H](C)OC)C(=O)N2C[C@@H](C)N(C)C[C@H]2C)cc1F)C(C1CC1)C1CC1 [Compound 287] | < 10 | < 10 | – |
| CCC(=O)N[C@@H](C(=O)N1C[C@@H](C)N(C)C[C@H]1C)[C@@H](C)c1ccc(NC(=O)[C@@H](NC(=O)C2(F)CC2)C(C2CC2)C2CC2)c(F)c1 [Compound 288] | 100 to 10000 | < 10 | – |
| COCC(=O)N[C@@H](C(=O)N1C[C@@H](C)N(C)C[C@H]1C)[C@@H](C)c1ccc(NC(=O)[C@@H](NC(=O)C2(F)CC2)C(C2CC2)C2CC2)c(F)c1 [Compound 289] | 100 to 10000 | < 10 | – |
| CO[C@@H](C)C(=O)N[C@@H](C(=O)N1C[C@@H](C)N(C)C[C@H]1C)[C@@H](C)c1ccc(NC(=O)[C@@H](NC(=O)C2(F)CC2)C(C2CC2)C2CC2)c(F)c1 [Compound 290] | 100 to 10000 | < 10 | – |
| CCn1nccc1C(=O)N[C@H](C(=O)Nc1ccc([C@H](C)[C@@H](NC(=O)N(C)C2CC2)C(=O)N2CCN(C)[C@H](C)C2)cc1F)C(C1CC1)C1CC1 [Compound 291] | < 10 | < 10 | – |
| CCn1nccc1C(=O)N[C@H](C(=O)Nc1ccc([C@H](C)[C@@H](NC(=O)C(C)(F)F)C(=O)N2CCN(C)[C@H](C)C2)cc1F)C(C1CC1)C1CC1 [Compound 292] | 10 to 100 | < 10 | – |
| CCn1nccc1C(=O)N[C@H](C(=O)Nc1ccc([C@H](C)[C@@H](NC(=O)COC)C(=O)N2C[C@@H](C)N(C)[C@@H](C)C2)cc1F)C(C1CC1)C1CC1 [Compound 293] | 10 to 100 | < 10 | – |
| CO[C@@H](C)C(=O)N[C@@H](C(=O)N1C[C@H]2CC[C@@H](C1)N2C)[C@@H](C)c1ccc(NC(=O)[C@@H](NC(=O)C2(F)CC2)C(C2CC2)C2CC2)c(F)c1 [Compound 294] | 100 to 10000 | 10 to 100 | – |
| C[C@@H](c1ccc(NC(=O)[C@@H](NC(=O)C2(F)CC2)C(C2CC2)C2CC2)c(F)c1)[C@@H](NC(=O)N(C)C1CC1)C(=O)N1C[C@H]2CC[C@@H](C1)N2C [Compound 295] | 100 to 10000 | < 10 | – |
| CCn1nccc1C(=O)N[C@H](C(=O)Nc1ccc([C@H](C)[C@@H](NC(=O)[C@H](C)N(C)C2=NCCO2)C(=O)N2CCN(C)[C@H](C)C2)cc1F)C(C1CC1)C1CC1 [Compound 296] | 10 to 100 | < 10 | – |
| CCC(=O)N[C@@H](C(=O)N1CCN(C)[C@H](C)C1)[C@@H](C)c1ccc(NC(=O)[C@@H](NC(=O)c2ccnn2C)C(C2CC2)C2CC2)c(F)c1 [Compound 297] | 10 to 100 | < 10 | – |

From patent publication US20250177383A1, “DI-CYCLOPROPYL BASED IL-17A MODULATORS AND USES THEREOF” (DICE ALPHA, INC., priority 2022, published 2025)
